Experimental data from patent publication US20230144211A1, “ANTIFOLATE LINKER-DRUGS AND ANTIBODY-DRUG CONJUGATES” (Byondis B.V., priority 2020, published 2023).

What was measured:
SK-BR-3 cells = assay: In vitro cell viability assay (CellTiter-Glo, 6 days); type: cell-based, human; settings: Homo sapiens, SK-BR-3, free antifolate drugs
Description: (§1) FaDu, BxPC-3, HeLa, MV4-11, and RAJI cell lines were obtained from Deutsche Sammlung von Mikroorganismen und Zellkulturen (Leipzig, Germany). Jurkat NucLight Red cells were obtained from Essen BioScience Inc. (Ann Arbor, Mich., USA). SK-BR-3 and SK-OV-3 cells were cultured in McCoys 5A medium (Lonza; Walkersville, Md., USA) supplemented with 10% v/w Fetal Bovine Serum (FBS), Heat-inactivated (HI) (Gibco-Life Technologies; Carlsbad, Calif.) and 80 U/mL Pen/Strep (Gibco-Life Technologies), at 37° C. in a humidified incubator under 5% CO2 atmosphere. SW-620 cells were similarly maintained in RPMI 1640 medium (Lonza), containing 10% v/w FBS HI and 80 U/mL Pen/Strep. A-549 cells were similarly maintained in F-12K Nutrient Mixture (1×) (Gibco-Life Technologies) media supplemented with 80 U/mL Pen/Strep and 5% v/w FBS, which was Qualified (Q) (Gibco-Life Technologies). BT-474 and AU-565 cells were similarly maintained in RPMI 1640 medium (Lonza), containing 10% v/w FBS, which was Qualified (Q) (Gibco-Life Technologies), and 80 U/mL Pen/Strep. […] Jurkat NucLight Red cells were similarly maintained in RPMI 1640 medium (Lonza), containing 10% v/w FBS HI, 80 U/mL Pen/Strep and 0.5 μg/mL Puromycin (Gibco-Life Technologies). FaDu cells were cultured in EMEM medium (Lonza) supplemented with 10% v/w FBS HI (Gibco-Life Technologies), 1× GlutaMAX (Gibco-Life Technologies), and 80 U/mL Pen/Strep (Gibco-Life Technologies), at 37° C. in a humidified incubator under 5% CO2 atmosphere.
(§2) After an overnight incubation, 10 serial log 10 dilutions of the free drugs were made in DMSO (Sigma-Aldrich). These free drug dose-response curves were 10-times further diluted in complete growth medium. For the ADCs according to the invention 10 serial log 10 dilutions were made in complete growth medium. 10 μL of a composition comprising a free drug or an ADC according to the invention was added to the assay plate (final DMSO content for free drugs was 1%). […] […] Percentage cell survival was calculated by dividing the measured luminescence for each free drug or ADC according to the concentration with the average mean of untreated cells (1% or 0.1% DMSO control (for free drugs) or 100% complete growth medium (for ADCs)) multiplied by 100.
(§3) Curves were fitted by non-linear regression using the sigmoidal dose-response equation with variable slope (four parameters) using curve-fitting software (GraphPad Prism, version 9.4.0 for Windows, GraphPad, San Diego, Calif. or Electronic Laboratory Notebook (ELN) add-in BioAssay, version 19.1.0.0218, Perkin Elmer, Waltham, Mass.). Relative IC50 values were calculated as the concentration that gives a response halfway between bottom and top of the curve, when using a 4-parameter logistic fit. Data were reported as mean IC50 value of at least one experiment performed in duplicate.

SW-620 cells = assay: as above; type: cell-based; settings: Homo sapiens, free antifolate drugs, Table 1a
Description: as §1
(§4) After an overnight incubation, 10 serial log 10 dilutions of the free drugs were made in DMSO (Sigma-Aldrich). These free drug dose-response curves were 10-times further diluted in complete growth medium. For the ADCs according to the invention 10 serial log 10 dilutions were made in complete growth medium. 10 μL of a composition comprising a free drug or an ADC according to the invention was added to the assay plate (final DMSO content for free drugs was 1%). […] Cell viability was assessed after 6 days using a luminescent assay kit (CellTiter-Glo™ (CTG), Promega Corporation) according to the manufacturer's instructions. Percentage cell survival was calculated by dividing the measured luminescence for each free drug or ADC according to the concentration with the average mean of untreated cells (1% or 0.1% DMSO control (for free drugs) or 100% complete growth medium (for ADCs)) multiplied by 100.
as §3

A-549 cells = assay: as above; type: cell-based; settings: Homo sapiens, A549; free antifolate drugs, Table 1a; $ steep hillslope
Description: (§5) Human tumor cell lines SK-BR-3, SW-620, A-549, BT-474, Jurkat Clone E6-1, AU-565, and SK-OV-3 were obtained from American Type Culture Collection (Rockville, Md., USA). FaDu, BxPC-3, HeLa, MV4-11, and RAJI cell lines were obtained from Deutsche Sammlung von Mikroorganismen und Zellkulturen (Leipzig, Germany). Jurkat NucLight Red cells were obtained from Essen BioScience Inc. (Ann Arbor, Mich., USA). SK-BR-3 and SK-OV-3 cells were cultured in McCoys 5A medium (Lonza; Walkersville, Md., USA) supplemented with 10% v/w Fetal Bovine Serum (FBS), Heat-inactivated (HI) (Gibco-Life Technologies; Carlsbad, Calif.) and 80 U/mL Pen/Strep (Gibco-Life Technologies), at 37° C. in a humidified incubator under 5% CO2 atmosphere. SW-620 cells were similarly maintained in RPMI 1640 medium (Lonza), containing 10% v/w FBS HI and 80 U/mL Pen/Strep. A-549 cells were similarly maintained in F-12K Nutrient Mixture (1×) (Gibco-Life Technologies) media supplemented with 80 U/mL Pen/Strep and 5% v/w FBS, which was Qualified (Q) (Gibco-Life Technologies). BT-474 and AU-565 cells were similarly maintained in RPMI 1640 medium (Lonza), containing 10% v/w FBS, which was Qualified (Q) (Gibco-Life Technologies), and 80 U/mL Pen/Strep. Jurkat Clone E6-1, BxPC-3, HeLa, MV4-11, and RAJI cells were similarly maintained in RPMI 1640 medium (Lonza), containing 10% v/w FBS HI and 80 U/mL Pen/Strep. Jurkat NucLight Red cells were similarly maintained in RPMI 1640 medium (Lonza), containing 10% v/w FBS HI, 80 U/mL Pen/Strep and 0.5 μg/mL Puromycin (Gibco-Life Technologies). FaDu cells were cultured in EMEM medium (Lonza) supplemented with 10% v/w FBS HI (Gibco-Life Technologies), 1× GlutaMAX (Gibco-Life Technologies), and 80 U/mL Pen/Strep (Gibco-Life Technologies), at 37° C. in a humidified incubator under 5% CO2 atmosphere.
as §4, with “Cells in complete growth medium were plated in 96-well plates (90 μL/well) and incubated at 37° C., 5% CO2 at the following cell densities: 6500 SK-BR-3, 4000 SW-620, 2500 A-549, 10000 BT-474, 3000 Jurkat Clone E6-1, 5000 AU-565, 1250 FaDu, 1250 BxPC-3, 1000 HeLa, 7500 MV4-11, 1000 RAJI, 3000 Jurkat NucLight Red, and 4000 SK-OV-3 cells per well. After” for “After”
as §3

AU-565 cells = assay: as above; type: cell-based, human; settings: Homo sapiens, AU565, free antifolate drugs
Description: as §1, §2, §3

Human tumor cell lines = assay: In vitro cell viability assays, free antifolate drugs, overall comparison; type: cell-based; settings: compared with talotrexin or parent compound
Description: as §5
as §4, with “Cells in complete growth medium were plated in 96-well plates (90 μL/well) and incubated at 37° C., 5% CO2 at the following cell densities: 6500 SK-BR-3, 4000 SW-620, 2500 A-549, 10000 BT-474, 3000 Jurkat Clone E6-1, 5000 AU-565, 1250 FaDu, 1250 BxPC-3, 1000 HeLa, 7500 MV4-11, 1000 RAJI, 3000 Jurkat NucLight Red, and 4000 SK-OV-3 cells per well. After” for “After”
as §3

[1] = test system: Jurkat NucLight Red cells; assay: In vitro cell viability assay (CellTiter-Glo, 6 days); type: cell-based, human; settings: Homo sapiens, Jurkat, free antifolate drugs
Description: as §1, §4, §3

SMILES | IC50 (SK-BR-3 cells; Table 1a) | IC50 (SW-620 cells) | IC50 (A-549 cells) | also measured
Cc1c(CNc2ccc(C(=O)N[C@@H](CCCNC(=O)c3ccccc3C(=O)O)C(=O)O)cc2)ccc2nc(N)nc(N)c12 [Comparative compound 1, reference compound] | 0.92 nM | 1.41 nM | 1.97 nM | –
Nc1nc(N)c2nc(CNc3ccc(C(=O)N[C@@H](CCCNC(=O)c4ccccc4C(=O)O)C(=O)O)cc3)cnc2n1 [Talotrexin, reference compound] | 1.83 nM | 1.74 nM | 1.7 nM | –
Nc1nc(N)c2nc(CNc3ccc(C(=O)N[C@@H](CCCNC(=O)c4ccc(O)cc4)C(=O)O)cc3)cnc2n1 [XS14, (S)-2-(4-(((2,4-diaminopteridin-6-yl)methyl)amino)benzamido)-5-(4-hydroxybenzamido)pentanoic acid] | 1.6 nM | – | ~8.7 nM | IC50 (AU-565 cells; Table 1a): 1.9 nM
Nc1ccc(C(=O)O)c(C(=O)NCCC[C@H](NC(=O)c2ccc(NCc3cnc4nc(N)nc(N)c4n3)cc2)C(=O)O)c1 [XT9, (S)-4-Amino-2-((4-carboxy-4-(4-(((2,4-diaminopteridin-6-yl)methyl)amino)benzamido)butyl)carbamoyl)-benzoic acid] | 17 nM | 10 nM | 20 nM | –
Nc1ccc(C(=O)NCCC[C@H](NC(=O)c2ccc(NCc3cnc4nc(N)nc(N)c4n3)cc2)C(=O)O)c(C(=O)O)c1 [XT10, (S)-5-amino-2-((4-carboxy-4-(4-(((2,4-diaminopteridin-6-yl)methyl)-amino)benzamido)butyl)carbamoyl)benzoic acid] | 1.9 nM | 2.1 nM | 2 nM | –
CN(Cc1cnc2nc(N)nc(N)c2n1)c1ccc(C(=O)N[C@@H](CCCNC(=O)c2cc(N)ccc2C(=O)O)C(=O)O)cc1 [XT20, (S)-4-Amino-2-((4-carboxy-4-(4-(((2,4-diaminopteridin-6-yl)methyl)(methyl)amino)benzamido)butyl)-carbamoyl)benzoic acid] | 25 nM | 12 nM | 19 nM | –
CN(Cc1cnc2nc(N)nc(N)c2n1)c1ccc(C(=O)N[C@@H](CCCNC(=O)c2ccc(N)cc2C(=O)O)C(=O)O)cc1 [XT21, (S)-5-amino-2-((4-carboxy-4-(4-(((2,4-diaminopteridin-6-yl)methyl)(methyl)amino)benzamido)butyl)carbamoyl)benzoic acid] | 2.1 nM | 2.9 nM | 2.3 nM | –
Nc1ccc(C(=O)O)c(C(=O)NCCC[C@H](NC(=O)c2ccc(CCc3cnc4nc(N)nc(N)c4n3)cc2)C(=O)O)c1 [XT24, (S)-4-Amino-2-((4-carboxy-4-(4-(2-(2,4-diaminopteridin-6-yl)ethyl)benzamido)butyl)carbamoyl) benzoic acid] | 18 nM | 7.5 nM | 27 nM | –
Nc1ccc(C(=O)NCCC[C@H](NC(=O)c2ccc(CCc3cnc4nc(N)nc(N)c4n3)cc2)C(=O)O)c(C(=O)O)c1 [XT25, (S)-5-amino-2-((4-carboxy-4-(4-(2-(2,4-diaminopteridin-6-yl)ethyl)benzamido)butyl)-carbamoyl)benzoic acid] | 1 nM | 1.1 nM | 2.3 nM | –
Nc1ccc(C(=O)NCCC[C@H](NC(=O)c2ccc(NCc3cnc4nc(N)nc(N)c4n3)cc2)C(=O)O)cc1 [XT35, (S)-5-(4-Aminobenzamido)-2-(4-(((2,4-diaminopteridin-6-yl)methyl)amino)benzamido) pentanoic acid] | 3.1 nM | 2.5 nM | 16 nM | antifolate activity, comparison in words (Human tumor cell lines): less active than talotrexin
Nc1ccc(C(=O)NCCC[C@H](NC(=O)c2ccc(NCc3ccc4nc(N)nc(N)c4c3Cl)cc2)C(=O)O)c(-c2nnn[nH]2)c1 [XT110, (S)-5-(4-Amino-2-(1H-tetrazol-5-yl)benzamido)-2-(4-(((2,4-diamino-5-chloroquinazolin-6-yl)methyl)amino)benzamido)pentanoic acid] | – | – | – | IC50 (AU-565 cells; Table 1b): 0.36 nM; IC50 (AU-565 cells; Table 1c): 0.44 nM; IC50 (SK-BR-3 cells; Table 1b, # no full dose-response curve): 0.41 nM; IC50 (SK-BR-3 cells; Table 1c): 0.54 nM; antifolate activity, comparison in words (Human tumor cell lines): strongly increased the antifolate activity; IC50 ([1]; Table 1b): 0.75 nM; IC50 ([1]; Table 1c): 0.92 nM
[N-]=[N+]=Nc1ccc(C(=O)NCCC[C@H](NC(=O)c2ccc(CCc3cnc4nc(N)nc(N)c4n3)cc2)C(=O)O)cc1 [XX5, (S)-5-(4-Azidobenzamido)-2-(4-(2-(2,4-diaminopteridin-6-yl)ethyl)benzamido) pentanoic acid] | 16 nM | 7.2 nM | 76 nM | antifolate activity, comparison in words (Human tumor cell lines): less active than talotrexin
